Experimental data taken from patent publication US12673120B2, “Fluorescently-traceable amino acid derivative and preparation methods and use thereof” (priority 2020, dated 2026).
Structures can show the parent of a compound that is named as a salt.

What was measured:
[1] = system: S180 (mouse ascites tumor cells); experiment: In vitro anti-tumor cell proliferation activity (MTT method), S180; type: cell-based; settings: S180; 48 h; Mean ± SD; read-out: IC50 values of in vitro anti-cell proliferation activity
Procedure: (§1) Tested cell lines S180 (mouse ascites tumor cells), LLC (mouse lung cancer cells), A549 (human non-small cell lung cancer cells), HCT116 (human colon cancer cells), U2Os (human osteosarcoma cells), and MCF-7 (human breast cancer cells) each were purchased from Nanjing KeyGen Biotech.
(§2) When preparing a test sample, the test compound was prepared into a sample solution with a concentration of 500 μM (with a final concentration 100 μM) by a PBS buffer containing 0.5% DMSO, which was used for preliminary screening of an anti-cell proliferation experiment in vitro.
(§3) Positive control group: doxorubicin, prepared to a required concentration with PBS buffer containing 0.5% DMSO; negative control group: a PBS buffer containing 0.5% DMSO; blank group: a PBS buffer containing 0.01% DMSO.

[2] = system: LLC (mouse lung cancer cells); experiment: In vitro anti-tumor cell proliferation activity (MTT method), LLC; type: cell-based; settings: LLC; 48 h; Mean ± SD; read-out: IC50 values of in vitro anti-cell proliferation activity
Procedure: as §1, §2, §3

[3] = system: A549 (human non-small cell lung cancer cells); experiment: In vitro anti-tumor cell proliferation activity (MTT method), A549; type: cell-based; settings: A549; 48 h; Mean ± SD; read-out: IC50 values of in vitro anti-cell proliferation activity
Procedure: as §1, §2, §3

[4] = system: HCT116 (human colon cancer cells); experiment: In vitro anti-tumor cell proliferation activity (MTT method), HCT116; type: cell-based; settings: HCT116; 48 h; Mean ± SD; read-out: IC50 values of in vitro anti-cell proliferation activity
Procedure: as §1, §2, §3

[5] = system: U2Os (human osteosarcoma cells); experiment: In vitro anti-tumor cell proliferation activity (MTT method), U2Os; type: cell-based; settings: U2Os; 48 h; Mean ± SD; read-out: IC50 values of in vitro anti-cell proliferation activity
Procedure: as §1, §2, §3

[6] = system: MCF-7 (human breast cancer cells); experiment: In vitro anti-tumor cell proliferation activity (MTT method), MCF-7; type: cell-based; settings: MCF-7; 48 h; Mean ± SD; read-out: IC50 values of in vitro anti-cell proliferation activity
Procedure: as §1, §2, §3

mouse S180 sarcoma model = experiment: Inhibition of tumor growth in vivo (mouse S180 sarcoma model); parameters: species or system male ICR mice; settings: ip; for Average tumor weight: Mean ± SD, n 10
Procedure: The mice used in the experiment were male ICR mice of SPF grade, weighing 20 g±2 g, purchased from Beijing Vital River Laboratory Animal Technology Co., Ltd., and raised in an animal barrier of the Experimental Animal Department of Capital Medical University.
The specific method included: drugs were administered to tumor-forming mice by group for 7 consecutive days, a length of the tumor was measured every other day to calculate a tumor volume. 24 h after the last administration, the mice were weighed, anesthetized with diethyl ether, and eyeballs were removed to collect blood; the obtained whole blood was centrifuged at 1,000 rpm for 10 min, and a serum was absorbed for later use. The mice were sacrificed by neck dislocation, and the tumor mass and various organs were stripped and weighed (it was ensured that the operation was done as soon as possible and the stripping was complete and clean). The tumor inhibition rate was calculated by formula b, the results were shown in Table 2 and FIG. 2; and by calculating a viscera-weight ratio of each organ, and it was analyzed whether the test compound had obvious physiological effects on the mouse organs.

[7] = Nanomorphology characterization and stability (TEM, SEM, hydration particle size, Zeta potential); type: physicochemical
Text: The nanomorphology of compounds ZD-B and ZD-E-1 were studied by TEM and SEM, and hydration particle size and Zeta potential of the two compounds in a solution were studied by a nanometer particle size analyzer. The results were shown in FIG. 1A-H. In FIG. 1A-H, FIG. 1A was a TEM image of the compound ZD-B; FIG. 1B was a TEM image of the compound ZD-E-1; FIG. 1C was a SEM image of the compound ZD-B; FIG. 1D was a SEM image of the compound ZD-E-1; FIG. 1E was a hydration particle size change curve of the compound ZD-B in solutions at different pH values within 72 h (0.5 h, 24 h, 48 h, and 72 h); FIG. 1F was a hydration particle size change curve of the compound ZD-E-1 in solutions at different pH solutions within 72 h; FIG. 1G was a Zeta potential change curve of the compound ZD-B in solutions at different pH values within 72 h; and FIG. 1H was a Zeta potential change curve of the compound ZD-E-1 in solutions at different pH values within 72 h.

Water solubility = type: physicochemical; settings: decides the injection route
[8] = Table 2, 10 μmol/kg, 7 consecutive days

| Compound | IC50 [1] | IC50 [2] | IC50 [3] | IC50 [4] | IC50 [5] | IC50 [6] | Average tumor weight compared with Vehicle group (one-way analysis of variance) (mouse S180 sarcoma model; 10 μmol/kg) | Tumor Inhibition Rate (mouse S180 sarcoma model; [8]) | Average tumor weight (mouse S180 sarcoma model; [8]) | further results |
| --- | --- | --- | --- | --- | --- | --- | --- | --- | --- | --- |
| CS(=O)(=O)NCCNc1ccc([N+](=O)[O-])c2nonc12 [ZD-C, NBD-N-(2-aminoethyl)methanesulfonamide] | > 100 µM | > 100 µM | > 100 µM | > 100 µM | > 100 µM | > 100 µM | different from that of Vehicle group | 29.46% | 1.260 ± 0.466 g |  |
| NCCCC[C@H](Nc1ccc([N+](=O)[O-])c2nonc12)C(=O)NCc1ccccc1 [ZD-F, NBD-Lys(HCl)-NBzl] | > 100 µM | > 100 µM | > 100 µM | > 100 µM | > 100 µM | > 100 µM |  |  |  |  |
| O=C1NCCC[C@@H]1Nc1ccc([N+](=O)[O-])c2nonc12 [ZD-D, NBD-Orn(cycto)] | > 100 µM | > 100 µM | > 100 µM | > 100 µM | > 100 µM | > 100 µM |  | 25.77% | 1.326 ± 0.318 g |  |
| CC(C)C[C@H](Nc1ccc([N+](=O)[O-])c2nonc12)C(=O)N[C@H](C(=O)OCc1ccccc1)C(C)C [ZD-B, NBD-LV-OBzl] | 74.4 ± 10.1 µM | 96.5 ± 6.85 µM | > 100 µM | > 100 µM | 86.4 ± 5.3 µM |  | significantly different from that of Vehicle group | 44.60% | 0.990 ± 0.180 g | Anti-tumor growth activity (in words) (mouse S180 sarcoma model; 10 μmol/kg): most prominent activities; Tumor Inhibition Rate (mouse S180 sarcoma model; Table 3, 2 μmol/kg): 17.00%; Average tumor weight (mouse S180 sarcoma model; Table 3, 2 μmol/kg): 1.424 ± 0.434 g; Tumor Inhibition Rate (mouse S180 sarcoma model; Table 3, 5 μmol/kg): 35.64%; Average tumor weight (mouse S180 sarcoma model; Table 3, 5 μmol/kg): 1.104 ± 0.218 g; Tumor Inhibition Rate (mouse S180 sarcoma model; Table 3, 10 μmol/kg): 41.23%; Average tumor weight (mouse S180 sarcoma model; Table 3, 10 μmol/kg): 1.008 ± 0.472 g; Nanomorphology (shape) ([7]; TEM and SEM): shape of a strip; Hydration particle size change ([7]; pH=2.0, measured continuously for 72 h): great change in particle size; Hydration particle size change ([7]; pH=5.5, measured continuously for 72 h): great change in particle size; Hydration particle size ([7]; pH=7.0 versus other pH values, 72 h): smallest particle size at pH=7.0; Zeta potential change ([7]; solutions at different pH values, measured continuously for 72 h): neither ZD-B nor ZD-E-1 had an obvious change; Water solubility (Water solubility): poor water solubility |
